The results in this text go back to patent US20230181580A1, “TREATMENT OF PROLIFERATIVE DISEASES OF THE CNS” (AUCENTRA THERAPEUTICS PTY LTD, priority 2020, published 2023).

The test system of assay [1] is PANC1. Nature of the assay: MTT proliferation assay, pancreas. The conditions noted are these: Homo sapiens, PANC-1, 72 h, read-out: Antiproliferative activity GI50 PANC1. The format is cell-based. An excerpt: (§1) Representative compounds from Example 1, were subjected to standard MTT (3-(4,5-dimethylthiazol-2-yl)-2,5-diphenyltetrazolium bromide) and resazurin assays on solid tumour cell lines (including GBM cell lines) and leukemia cell lines, respectively, as previously reported (Wang S et al., J Med Chem 47:1662-1675, 2004; and Diab S. et al. CheMedChem 9:962-972, 2014).
On the technique in general: Formazan colour is commonly taken as a measure of viable cells.

Assay [2] has as its system GBM U87 cells. Nature of the assay: Annexin V/PI apoptosis assay. The assay is classed as cell-based. The following applies: 5 μM, 48 hours, with or without 5 μM TMZ. As for the experimental part:
The ability of compound 1 to induce apoptosis in GBM cells was investigated using the annexin V-FITC apoptosis detection kit I (BD Pharmingen Inc.; San Diego, Calif., United States of America) according to the manufacturer's protocol. Cell pellets were washed twice with 1 mL cold PBS and centrifuged at 300×g for 5 mins. Following the removal of supernatants, cell pellets were stained with 100 μL 1× annexin V binding buffer, 3 μL annexin V-FITC and 3 μL propidium iodide staining solution, and incubated in the dark at room temperature for 15 mins. The percentage of apoptic cells was measured by a CytoFLEX flow cytometer.

Assay [3] relates to A2780. The assay is described as follows: MTT proliferation assay, ovarian. The format is cell-based. The following applies: Homo sapiens, 72 h, read-out: Antiproliferative activity GI50 A2780.
Source text: as §1

The test system of assay [4] is Colo205. The assay is described as follows: MTT proliferation assay, colorectal. The following applies: Homo sapiens, COLO 205, 72 h, read-out: Antiproliferative activity GI50 Colo205. The assay is classed as cell-based.
Source text: as §1

Assay [5] relates to GBM cell lines (U87, U251, T98G). The assay is described as follows: In vitro tumorigenicity (colony formation) assay. The assay is classed as cell-based. The conditions noted are these: 10 days, crystal violet staining, FIG. 3B. As for the experimental part:
(§2) All three GBM cell lines used in this example, namely U87, U251 and T98G, were cultured in Eagle's Minimum Essential Medium (EMEM) with 10% fetal bovine serum in 75 cm^2 flasks at 37° C. and 5% CO2. All cell lines were confirmed to be mycoplasma-free prior to any experiment setup.
A density of 200 to 400 cells/well was seeded in a twelve-well plate and incubated for overnight prior to compound treatment. […] After 10 days, cells were washed with PBS, fixed and stained with crystal violet staining solution (0.05% crystal violet, 1% formaldehyde, 1% PBS, 1% ethanol); the results are shown in FIG. 3B.

Assay [6] has as its system MV4-11. Nature of the assay: Resazurin proliferation assay, leukaemia cell line. The assay is classed as cell-based. The conditions noted are these: Homo sapiens, 72 h, read-out: Antiproliferative activity GI50 MV4-11.
Source text: as §1
Background: The colour change of resazurin is a common sign of viable cells or microbes.

Assay [7] deals with CDK2/A (Homo sapiens, UniProt P24941). Nature of the assay: CDK kinase inhibition assay (radiometric / ADP Glo). The assay is classed as biochemical. As for the experimental part:
(§3) Eurofins Pharma Discovery or Reaction Biology Corporation Kinase Profiler services were used to measure inhibition of CDKs and other kinases by radiometric assay (RIA). Inhibition of CDK4/Cyclin D1, CDK6/Cyclin D3 and CDK9/T1 were also determined in-house using ADP Glo Kinase assays (Promega Corporation, Madison Wis., United States of America). Briefly, the kinase reaction for CDK4/Cyclin D1 and CDK6/Cyclin D3 was performed with kinase reaction buffer ([…] Tris base pH 7.5, 20 mM MgCl2, 0.4 mM DTT), 0.1 mg/ml BSA and RB-CTF substrate (retinoblastoma protein1 C-terminal fraction). For CDK9/CyclinT1, the kinase reaction was performed with standard assay buffer and Kinase Dilution Buffer and RBER-IRStide substrate. Serial dilutions of 1:3 were prepared for test compounds for 10 concentrations (from 10 μM to 0.5 nM). The kinase reactions were started by addition of ATP, incubated for 40 min at 37° C. and then stopped by adding 10 μL of ADP Glo reagent. After incubation at room temperature (RT) in the dark for 40 min, 20 μL of kinase detection reagent was added per well and incubated for 40 min. Luminescence was measured using an EnVision Multilabel plate reader (PerkinElmer, Buckinghamshire, United Kingdom). Positive and negative controls were performed in the presence and absence of CDK kinases, respectively. Half-maximal inhibition (IC50) values were calculated using a 4-parameter logistic non-linear regression model with Graphpad prism (Version 6.0). Apparent inhibition constants (Ki) values were calculated from Km (ATP) and IC50 values for the respective kinases.
(In general: ADP-Glo turns the ADP formed in a reaction into a luminescent signal.)

The target of assay [8] is CDK7/H (Homo sapiens, UniProt P50613). The assay is described as above. The format is biochemical. As for the experimental part: as §3
CDK7/H, sequence (P50613 whole entry): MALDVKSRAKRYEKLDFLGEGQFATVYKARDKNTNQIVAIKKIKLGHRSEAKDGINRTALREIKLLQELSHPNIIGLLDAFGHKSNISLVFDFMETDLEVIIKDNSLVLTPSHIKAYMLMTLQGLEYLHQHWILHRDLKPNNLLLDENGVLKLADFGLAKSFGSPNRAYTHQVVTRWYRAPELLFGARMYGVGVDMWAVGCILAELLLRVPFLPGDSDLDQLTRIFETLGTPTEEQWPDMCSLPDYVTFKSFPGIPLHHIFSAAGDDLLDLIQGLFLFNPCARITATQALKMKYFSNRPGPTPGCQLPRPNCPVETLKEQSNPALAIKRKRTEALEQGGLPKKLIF
CDK7/H, sequence (P51946 whole entry partner): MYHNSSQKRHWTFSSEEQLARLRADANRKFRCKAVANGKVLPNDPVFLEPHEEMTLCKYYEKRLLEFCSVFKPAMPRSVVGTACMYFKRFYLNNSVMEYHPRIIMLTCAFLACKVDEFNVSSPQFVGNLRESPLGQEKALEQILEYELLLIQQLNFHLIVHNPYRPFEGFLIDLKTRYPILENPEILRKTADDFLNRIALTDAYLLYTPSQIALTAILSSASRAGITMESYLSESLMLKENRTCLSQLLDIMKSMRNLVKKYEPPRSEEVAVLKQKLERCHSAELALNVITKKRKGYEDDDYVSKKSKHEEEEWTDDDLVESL
CDK7/H, sequence (P51948 whole entry partner): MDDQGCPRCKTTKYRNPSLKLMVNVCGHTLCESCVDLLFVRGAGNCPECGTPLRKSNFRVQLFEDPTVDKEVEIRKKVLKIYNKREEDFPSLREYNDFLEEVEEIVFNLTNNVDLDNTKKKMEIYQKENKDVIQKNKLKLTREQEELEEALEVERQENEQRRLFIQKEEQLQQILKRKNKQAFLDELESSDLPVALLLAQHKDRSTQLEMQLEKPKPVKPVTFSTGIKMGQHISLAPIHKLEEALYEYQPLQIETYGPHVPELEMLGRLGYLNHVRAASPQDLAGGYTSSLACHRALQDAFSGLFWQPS
Assay [9] has as its target CDK9/T1 (Homo sapiens, UniProt P50750). Described as above. The format is biochemical. As for the experimental part:
as §3

The target of assay [10] is CDK1/B (Homo sapiens, UniProt P06493). The description is as above. The format is biochemical. As for the experimental part:
as §3

For assay [11], the system named is T98G. The assay is described as follows: MTT proliferation assay, glioblastoma. The assay is classed as cell-based. The following applies: Homo sapiens, 72 h, read-out: Antiproliferative activity GI50 T98G. As for the experimental part: as §2, §1
In assay [12] the test system is U251. Nature of the assay: MTT proliferation assay, glioblastoma. The assay is classed as cell-based. The conditions noted are these: Homo sapiens, U-251, 72 h, read-out: Antiproliferative activity GI50 U251. As for the experimental part:
as §2, §1

The subject of assay [13] is U87. Nature of the assay: MTT proliferation assay, glioblastoma. The assay is classed as cell-based. The conditions noted are these: Homo sapiens, U-87 MG, 72 h, read-out: Antiproliferative activity GI50 U87. As for the experimental part: as §2, §1

As a reminder, the GI50 is the concentration giving 50% growth inhibition. The term Ki denotes a measure of affinity in units of concentration, obtained from inhibition or displacement. Lower therefore signals higher affinity.

CDK1/B, sequence (P06493 whole entry): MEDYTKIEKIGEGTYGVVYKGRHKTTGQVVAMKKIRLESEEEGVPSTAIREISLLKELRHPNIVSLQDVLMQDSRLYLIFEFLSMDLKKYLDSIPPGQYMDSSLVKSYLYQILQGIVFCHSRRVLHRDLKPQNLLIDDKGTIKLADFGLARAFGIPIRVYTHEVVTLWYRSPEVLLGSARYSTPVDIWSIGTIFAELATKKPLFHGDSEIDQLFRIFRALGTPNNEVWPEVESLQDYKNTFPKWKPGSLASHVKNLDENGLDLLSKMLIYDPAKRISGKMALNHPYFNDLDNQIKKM
CDK1/B, sequence (P14635 whole entry partner): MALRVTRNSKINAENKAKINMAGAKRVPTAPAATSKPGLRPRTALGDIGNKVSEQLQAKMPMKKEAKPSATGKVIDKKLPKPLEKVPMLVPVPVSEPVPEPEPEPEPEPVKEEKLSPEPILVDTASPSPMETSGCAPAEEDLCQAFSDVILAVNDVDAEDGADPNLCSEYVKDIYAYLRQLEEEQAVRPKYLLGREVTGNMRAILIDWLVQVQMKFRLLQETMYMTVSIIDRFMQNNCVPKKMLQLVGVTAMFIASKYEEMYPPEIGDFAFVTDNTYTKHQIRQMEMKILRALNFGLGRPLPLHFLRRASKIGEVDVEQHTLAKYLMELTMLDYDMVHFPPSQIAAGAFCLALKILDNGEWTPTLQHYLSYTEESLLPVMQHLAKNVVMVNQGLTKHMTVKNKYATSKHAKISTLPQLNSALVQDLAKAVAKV
CDK9/T1, sequence (P50750 whole entry): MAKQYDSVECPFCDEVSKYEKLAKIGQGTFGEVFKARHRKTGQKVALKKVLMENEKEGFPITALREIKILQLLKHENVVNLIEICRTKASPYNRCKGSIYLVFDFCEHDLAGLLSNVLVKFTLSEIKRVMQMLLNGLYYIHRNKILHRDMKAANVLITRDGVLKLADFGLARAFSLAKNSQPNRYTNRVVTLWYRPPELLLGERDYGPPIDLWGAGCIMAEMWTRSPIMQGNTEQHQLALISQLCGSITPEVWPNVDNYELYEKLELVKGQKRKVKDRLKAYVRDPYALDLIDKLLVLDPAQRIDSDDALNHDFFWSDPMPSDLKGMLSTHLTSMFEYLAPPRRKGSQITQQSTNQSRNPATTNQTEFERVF
CDK9/T1, sequence (O60563 whole entry partner): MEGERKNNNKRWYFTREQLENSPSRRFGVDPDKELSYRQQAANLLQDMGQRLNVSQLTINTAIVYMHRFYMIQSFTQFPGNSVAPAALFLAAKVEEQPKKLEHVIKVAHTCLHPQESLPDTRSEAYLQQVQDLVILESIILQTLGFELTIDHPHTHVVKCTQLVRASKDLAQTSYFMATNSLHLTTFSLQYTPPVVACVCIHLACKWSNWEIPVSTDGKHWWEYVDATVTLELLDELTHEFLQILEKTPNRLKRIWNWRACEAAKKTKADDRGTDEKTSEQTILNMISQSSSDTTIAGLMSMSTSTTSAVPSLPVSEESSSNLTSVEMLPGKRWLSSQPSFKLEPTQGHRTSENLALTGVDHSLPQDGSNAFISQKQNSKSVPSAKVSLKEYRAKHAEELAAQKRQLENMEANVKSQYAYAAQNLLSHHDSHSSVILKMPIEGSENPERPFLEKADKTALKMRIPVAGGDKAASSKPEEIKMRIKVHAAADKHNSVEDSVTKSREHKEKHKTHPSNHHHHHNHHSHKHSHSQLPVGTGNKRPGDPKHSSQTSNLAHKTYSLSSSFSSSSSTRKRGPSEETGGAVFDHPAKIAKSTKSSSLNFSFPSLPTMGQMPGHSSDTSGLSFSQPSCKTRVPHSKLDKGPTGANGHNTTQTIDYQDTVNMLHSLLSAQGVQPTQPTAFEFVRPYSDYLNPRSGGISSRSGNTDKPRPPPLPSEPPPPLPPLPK

With `CNc1nc(C)c(-c2nc(Nc3ccc(N4CCC(N(C)C)CC4)cn3)ncc2F)s1` [Compound 1, 5-(2-((5-(4-(dimethylamino)piperidin-1-yl)pyridin-2-yl)amino)-5-fluoropyrimidin-4-yl)-N,4-dimethylthiazol-2-amine], the GI50 in [1] is 1.32 µM; in [3], 0.07 µM; in assay [4], 2.32 µM; in assay [6] it was 0.11 µM; in [11], 2.96 µM; in assay [12], 5.52 µM. The GI50 in [13] came out at 4.46 µM. In addition, in assay [2], the “induction of apoptosis (annexin V/PI)” value is “capable of inducing apoptosis in GBM cells to a greater level than the control anti-cancer agent, palbociclib”. Besides, in assay [5], the “growth and proliferation (colony formation)” value is “inhibits the growth and proliferation of all three GBM cell lines”. For the same compound, the inhibition constant (Ki) in [7], in assay [8], in assay [9] and in assay [10] was over 1 µM in each case.
